In PubChem BioAssay AID1963834 (Molecular Pharmacology Branch, DTP, NCI, 2024):

System: 873145-292-R-J1-PDC complex spheroid viability
Assay: Anticancer human tumor 873145-292-R-J1-PDC patient-derived renal clear cell carcinoma cell line growth inhibition [POLQ]
Settings: for IC50: curve of first compound; for viability, T/C: stronger effect = lower value; active = viability on the fitted dose curve at most 10% of control; inactive = the rest
Procedure: Multicellular complex tumor spheroid response to Polymerase (POL) inhibitors (novobiocin, ART-558, RP6685) in combination with a variety of drugs and investigational agents in selected tumor cell lines
The POL inhibitors (novobiocin, ART-558, and RP6685) were evaluated both individually and in combination with standard of care and investigational anticancer small molecules within a complex spheroid model of solid tumors. . Complex spheroids include a stromal component modeled by human endothelial cells (HUVEC) and fibroblasts modeled by human mesenchymal stem cells (MSCs). The concentration ranges selected for each drug and investigational agent were based upon clinically achievable concentrations if the clinical Cmax of the agent was known.
Compounds. The drugs and investigational agents: novobiocin (NSC847541), ART-558 (NSC835418), RP-6685 (NSC848927), peposertib (NSC802822), ceralasertib (NSC780249), elimusertib (NSC800525), camonsertib (NSC841442), AZD-1390 (NSC803789), olaparib (NSC753686), talazoparib (NSC767125), rucaparib (NSC756644), sotorasib (NSC818433), MRTX-1133 (NSC836407), SN-38 (NSC673596), topotecan (NSC609699), epotoside (NSC141540), doxorubicin (NSC123127), gemcitabine (NSC613327), 5-fluorouracil (NSC19893), paclitaxel (NSC125973), vemurafenib (NSC761431), MSA-2 (NSC828583), SN-011 (NSC837082), adavosertib (NSC754352), prexasertib (NSC758257), carboplatin (NSC241240) and oxaliplatin (NSC266046), were obtained from the National Cancer Institute (NCI) Developmental Therapeutics Program Chemical Repository (21). The FDA-approved anticancer drug set is available from the Developmental Therapeutics Program at https://dtp.cancer.gov/organization/dscb/obtaining/. […] The stock solutions were prepared in dimethyl sulfoxide (DMSO, Sigma-Aldrich, St. Louis, MO, cat. D2650), except for the platinum compounds which were prepared in saline (Quality Biological, Gaithersburg, MD, cat. 114-055-101), at 800-fold the tested concentration and stored at -70 degrees C prior to their use. All drugs and investigational agents were tested over a range starting from a high concentration at or near the clinical Cmax and decreasing in half-log increments. If the clinical Cmax for an agent had not been determined, the highest concentration tested was 10 microM, except for SN-38, which was tested at a high concentration of 1 microM.
Cell Culture. All cells were maintained in an incubator at 37 degrees C and 5% CO2 with 95% humidity. The PDC lines were cultured according to standard operating procedures established by the NCI PDMR (https://pdmr.cancer.gov). Table 3 of the manuscript, lists the cell lines along with the number of the three cell types plated to form the mct-spheroids and media for tumor cell growth. After thawing, all PDC lines, except 997537-175-T-J1-PDC and 415267-285-R-J2-PDC, were cultured in Matrigel-coated flasks prepared with a working solution of 1X Ham's F-12 nutrient mix, without supplementation (Thermo Fisher Scientific, cat. 11765054), 100 U/mL penicillin-streptomycin (Thermo Fisher Scientific, cat. 15140122), and 2.5% Matrigel (Corning Inc., Corning, NY, cat. 354248) for the first three passages. The two PDC lines 997537-175-T-J1-PDC and 415267-285-R-J2-PDC were cultured on uncoated flasks. The 857933-349-R-J2-PDC line was cultured in 6C/Colon 1B media containing advanced DMEM/F-12 (Thermo Fisher Scientific, cat. 12634028), 10 mM HEPES (Thermo Fisher Scientific, cat. 15630080), 1X GlutaMAX supplement (Thermo Fisher Scientific, cat. 35050061), 0.1 mg/mL primocin (InvivoGen, San Diego, CA, cat. ant-pm-2), 10% defined fetal bovine serum, heat inactivated (HyClone Laboratories Inc., Logan, UT, cat. SH30070.03HI), 50% L-WRN conditioned media (ATCC, cat. CRL-3276), 1.25 mM N-Acetyl-L-cysteine (Sigma-Aldrich, cat. A9165), 10 mM nicotinamide (Sigma-Aldrich, cat. N0636), 1X B-27 supplement (Thermo Fisher Scientific, cat. 17504044), 1X N-2 supplement (Thermo Fisher Scientific, cat. […]

[1] = second compound 0.0316 µM, first compound 0.0316 µM
[2] = second compound 0.0316 µM, first compound 0.1 µM
[3] = second compound 0.0316 µM, first compound 0.316 µM
[4] = second compound 0.0316 µM, first compound 1 µM
[5] = second compound 0.0316 µM, first compound 3.16 µM
[6] = second compound 0.0316 µM, first compound 10 µM
[7] = second compound 0.1 µM, first compound 0.0316 µM
[8] = second compound 0.1 µM, first compound 0.1 µM
[9] = second compound 0.1 µM, first compound 0.316 µM
[10] = second compound 0.1 µM, first compound 1 µM
[11] = second compound 0.1 µM, first compound 3.16 µM
[12] = second compound 0.1 µM, first compound 10 µM
[13] = second compound 0.316 µM, first compound 0.0316 µM
[14] = second compound 0.316 µM, first compound 0.1 µM
[15] = second compound 0.316 µM, first compound 0.316 µM
[16] = second compound 0.316 µM, first compound 1 µM
[17] = second compound 0.316 µM, first compound 3.16 µM
[18] = second compound 0.316 µM, first compound 10 µM
[19] = second compound 1 µM, first compound 0.0316 µM
[20] = second compound 1 µM, first compound 0.1 µM
[21] = second compound 1 µM, first compound 0.316 µM
[22] = second compound 1 µM, first compound 1 µM
[23] = second compound 1 µM, first compound 3.16 µM
[24] = second compound 1 µM, first compound 10 µM
[25] = second compound 3.16 µM, first compound 0.0316 µM
[26] = second compound 3.16 µM, first compound 0.1 µM
[27] = second compound 3.16 µM, first compound 0.316 µM
[28] = second compound 3.16 µM, first compound 1 µM
[29] = second compound 3.16 µM, first compound 3.16 µM
[30] = second compound 3.16 µM, first compound 10 µM
[31] = second compound 10 µM, first compound 0.0316 µM
[32] = second compound 10 µM, first compound 0.1 µM
[33] = second compound 10 µM, first compound 0.316 µM
[34] = second compound 10 µM, first compound 1 µM
[35] = second compound 10 µM, first compound 3.16 µM
[36] = second compound 10 µM, first compound 10 µM
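Also: spheroids exposed to compounds for 7 days before viability readout.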
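For viability, T/C in this document: luminescence signal used as surrogate for viable cell content.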

Nc1ccn(C2OC(CO)C(O)C2(F)F)c(=O)n1 (centres undefined) + Cc1cccc(N(C)C(=O)C2C(O)CCN2c2nc(C)cc(C(F)(F)F)c2C#N)c1
5.41 µM: IC50 (second compound 3.16 µM)
9.95 µM: IC50 (second compound 0.0316 µM)
4.94 µM: IC50 (second compound 0.316 µM)
inactive: viability, T/C [1] 67.6% | viability, T/C [2] 58.3% | viability, T/C [3] 51.4% | viability, T/C [4] 53.3% | viability, T/C [5] 53.5% | viability, T/C [6] 52.6% | viability, T/C [7] 82.3% | viability, T/C [8] 68.8% | viability, T/C [9] 51.8% | viability, T/C [10] 59.8% | viability, T/C [11] 55% | viability, T/C [12] 56.1% | viability, T/C [13] 62% | viability, T/C [14] 63.5% | viability, T/C [15] 54.6% | viability, T/C [16] 58.9% | viability, T/C [17] 54.9% | viability, T/C [18] 43.8% | viability, T/C [19] 66.9% | viability, T/C [20] 52.5% | viability, T/C [21] 52.3% | viability, T/C [22] 49.6% | viability, T/C [23] 53.1% | viability, T/C [24] 50.3% | viability, T/C [25] 72.3% | viability, T/C [26] 63.8% | viability, T/C [27] 55.4% | viability, T/C [28] 55.4% | viability, T/C [29] 56.1% | viability, T/C [30] 45.1% | viability, T/C [31] 69.2% | viability, T/C [32] 63.4% | viability, T/C [33] 62.9% | viability, T/C [34] 58.5% | viability, T/C [35] 59.7% | viability, T/C [36] 58.8%
> 10 µM: IC50 (second compound 0.1 µM) | IC50 (second compound 1 µM) | IC50 (second compound 10 µM)

COc1cccc2c1C(=O)c1c(O)c3c(c(O)c1C2=O)CC(O)(C(=O)CO)CC3OC1CC(N)C(O)C(C)O1 (centres undefined) + Cc1cccc(N(C)C(=O)C2C(O)CCN2c2nc(C)cc(C(F)(F)F)c2C#N)c1
1.35 µM: IC50 (second compound 0.316 µM) | IC50 (second compound 1 µM)
1.14 µM: IC50 (second compound 3.16 µM)
active: viability, T/C [5] 2.96% | viability, T/C [6] 2.02% | viability, T/C [11] 4.68% | viability, T/C [12] 2.44% | viability, T/C [17] 4.5% | viability, T/C [18] 2.19% | viability, T/C [23] 3.11% | viability, T/C [24] 1.52% | viability, T/C [29] 2.19% | viability, T/C [30] 1.66% | viability, T/C [35] 0.94% | viability, T/C [36] 1.6%
1.4 µM: IC50 (second compound 0.1 µM)
1.44 µM: IC50 (second compound 0.0316 µM)
0.636 µM: IC50 (second compound 10 µM)
inactive: viability, T/C [1] 87.6% | viability, T/C [2] 83.7% | viability, T/C [3] 66.1% | viability, T/C [4] 71.8% | viability, T/C [7] 92.2% | viability, T/C [8] 82.5% | viability, T/C [9] 66.9% | viability, T/C [10] 68.6% | viability, T/C [13] 96.4% | viability, T/C [14] 75.1% | viability, T/C [15] 72.1% | viability, T/C [16] 66.1% | viability, T/C [19] 95.8% | viability, T/C [20] 69.7% | viability, T/C [21] 71.9% | viability, T/C [22] 66.4% | viability, T/C [25] 91.1% | viability, T/C [26] 83.5% | viability, T/C [27] 71.9% | viability, T/C [28] 57.1% | viability, T/C [31] 84.8% | viability, T/C [32] 73.3% | viability, T/C [33] 80.3% | viability, T/C [34] 30.8%
